Laboratory results from PubChem BioAssay AID179 (DTP/NCI, 2004).
Calls of active or inactive are those of the source.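 The calls were made as follows: active = compounds giving half or more protection of infected cells from virus-caused growth loss, again on retest; inactive = the rest.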

Test system: CEM cells HIV-1 protection, formazan growth assay
Experiment: NCI AIDS Antiviral Assay
Conditions: for IC50: measured here: growth of uninfected CEM cells
Procedure, shortened: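 Human CEM cells, uninfected and HIV-1-infected, received five drug concentrations, and growth was read by soluble formazan assay. Compounds giving at least 50% protection were retested; reproducible 100% protection defined confirmed active.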

Structure (SMILES)	EC50	IC50	outcome
C1CCC(N=C(NC2CCCCC2)N2CCOCC2)CC1	> 200 µM	135 µM	–
CCN(CC)CC(=O)Nc1c(C)cc(C(=O)NN)cc1C	> 200 µM	> 200 µM	–
COc1ccc(NC(=O)CC(=O)NN2C(=O)/C(=C/c3ccc(N(CCC#N)CCC#N)cc3C)N=C2/C=C\c2ccccc2)cc1	–	–	inactive
c1ccc(COc2ccc(C[P+](c3ccccc3)(c3ccccc3)c3ccccc3)cc2)cc1	> 20 µM	0.324 µM	–
O=C(c1ccccc1)C(O)(c1ccccc1)C(c1ccccc1)c1ccccc1 (stereo unspecified)	> 26.3 µM	> 26.3 µM	–
CC(C)CCCC(C)[C@H]1CCC2[C@@H]1CC[C@@H]1[C@@]3(C)CC[C@H](CCC=C(c4cc(Cl)c(OCC(=O)O)c(C(=O)O)c4)c4cc(Cl)c(OCC(=O)O)c(C(=O)O)c4)C[C@@H]3CC[C@@]21C (stereo partly specified)	> 200 µM	1.7 µM	–
COC(=O)NC1=Nc2ccccc2C(=O)NN1	> 200 µM	> 200 µM	–
Cc1cc(S(=O)(=O)/N=C(/NN)NNc2cccc(C(F)(F)F)n2)c(S)cc1Cl	> 200 µM	42.7 µM	–
COc1ccc2c(c1)C(=O)C13CC(C(=O)N(C)C)C(OC(C)=O)(CCC21)C3 (stereo unspecified)	> 95.5 µM	> 95.5 µM	–
CC(C)c1ccc(C2NC(=S)NC3=C2c2ccccc2C3=O)cc1 (stereo unspecified)	> 107 µM	14.8 µM	–
CCCCn1c2c(c3ccccc3c1=O)C(=O)c1ccccc1-2	> 69.2 µM	33.9 µM	–
O=c1oc2ccccc2c(O)c1/C=N/C(=S)Nc1ccccc1	> 200 µM	51.3 µM	–
COC1NC(=O)Oc2c(F)cccc21 (stereo unspecified)	–	–	inactive
C=C1C2CC[C@@]3(CC[C@@H]4[C@@]5(C)CCC[C@@]4(CN4CCO[C@H]45)[C@@H]3C2)[C@@H]1O	–	–	inactive
Cc1c(N=Nc2ccc(Cl)cc2)c(C)n(C2OC(CO)C(O)C(O)C2O)c(=S)c1C#N (stereo unspecified)	> 200 µM	34.7 µM	–
COc1ccc2c(c1)CCCN1Cc3cc(OC)c(OC)cc3CC21 (stereo unspecified)	> 200 µM	87.1 µM	–
Cc1ccc(NC(=O)CC/C(CC(=O)C(C)(C)C)=N/NC(=O)c2cc3ccccc3cc2O)cc1C	> 20.4 µM	> 20.4 µM	–
O=C1OC[C@H]2[C@@H]1[C@H]1O[C@@H]2C2=C(CCC2)C1=O	> 200 µM	> 200 µM	–

Structure (SMILES)	EC50	IC50	outcome
Cc1ccccc1-c1c(N)nc(NC#N)nc1C(=O)Nc1ccccc1	–	–	inactive
S=c1sc2ccccc2n1CN1CCCC1	> 200 µM	102 µM	–
Cc1ccc(NC(=O)CC(=O)n2nc(C)c(N=Nc3ccccc3C(=O)O)c2C)cc1	> 427 µM	> 427 µM	–
c1c2c(cc(-n3nnc4c3CCCCCC4)c1-n1nnc3c1CCCCCC3)CCCCCC2	> 21.9 µM	> 21.9 µM	–
CCCCCCCCCCCCCCCCCCCCCCCCCCCCCC=C(c1cc(Cl)c(O)c(C(=O)O)c1)c1cc(Cl)c(O)c(C(=O)O)c1	12.3 µM	224 µM	–
C/C(Cl)=N/OC(=O)Nc1ccc(S(N)(=O)=O)c(C)c1	> 20 µM	8.71 µM	–
CCOC(OCC)(OCC)C(Br)CC (stereo unspecified)	> 933 µM	> 933 µM	–
CC(NC(=O)OC(C)(C)C)C(=O)NC1CCCC1 (stereo unspecified)	> 200 µM	> 200 µM	–
COc1cc2c(cc1OCc1ccccc1)C=CN(C(=O)c1ccccc1)C2C#N (stereo unspecified)	–	–	inactive
CCCC(C(=O)OCC(C)N1CCCC1(C)C)C1CCCC1 (stereo unspecified)	–	–	inactive
COC(=O)c1[nH]c(=O)c(C#N)c(C(=O)OC)c1C(=O)/C=C/c1ccccc1	> 51.3 µM	> 51.3 µM	–
COC(=O)[C@]12CSC[C@H]1C[C@H](c1ccc(N(C)C)cc1)N2	> 200 µM	> 200 µM	–
Cc1cc2c(cn1)C(=O)OCC2	–	–	inactive
OCC1C2C=CC(O2)[C@H]1CO (stereo partly specified)	–	–	inactive
COC(=O)C1=C(C(=O)OC)P2(C)(C)SC(=S)N2C1(c1ccccc1)c1ccccc1	> 200 µM	> 200 µM	–
CN(C)CCN=C1Nc2ccccc2C(=S)N2CSCC12 (stereo unspecified)	> 200 µM	> 200 µM	–
CC(C)(O)[C@@H]1CC[C@@]2(C)CCCC(O)C2(O)C1 (stereo partly specified)	–	–	inactive
